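Cultured in 96-well plates, cells were exposed to test compound for 48 hours across five concentrations. GI50 is the concentration that inhibits growth by half.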 Active and inactive are the calls of the source. Cut-off read from the data, not from the text of the source: active = GI50 up to about 1.1 µM and inactive = higher.
Tests used:
Assay in all cases: inhibition of tumour cell growth, NCI panel, 48 h
K562 = system: K562
BT-549 = system: BT-549
HOP-62 = system: HOP-62
OVCAR-4 = system: OVCAR-4
KM12 = system: KM12
SK-MEL-2 = system: SK-MEL-2
SF-295 = system: SF-295
IGROV-1 = system: IGROV-1
MDA-MB-231 = system: MDA-MB-231
M14 = system: M14
SK-MEL-5 = system: SK-MEL-5
RPMI-8226 = system: RPMI-8226
CCRF-CEM = system: CCRF-CEM
NCI-H23 = system: NCI-H23
MDA-N = system: MDA-N
COLO 205 = system: COLO 205
HCC 2998 = system: HCC 2998
T47D = system: T47D

Row | SMILES | GI50 (K562) | GI50 (BT-549) | GI50 (HOP-62) | GI50 (OVCAR-4) | GI50 (KM12) | GI50 (SK-MEL-2) | GI50 (SF-295) | GI50 (IGROV-1) | GI50 (MDA-MB-231) | GI50 (M14) | GI50 (SK-MEL-5) | GI50 (RPMI-8226) | GI50 (CCRF-CEM) | GI50 (NCI-H23) | GI50 (MDA-N) | GI50 (COLO 205) | GI50 (HCC 2998) | GI50 (T47D)
1 | Cc1n[nH]c(=O)n1N=C(c1ccccc1)c1ccccc1 | > 100 µM (inactive) | > 100 µM (inactive) | > 100 µM (inactive) | > 100 µM (inactive) | > 100 µM (inactive) | > 100 µM (inactive) | > 100 µM (inactive) | > 100 µM (inactive) | > 100 µM (inactive) | > 100 µM (inactive) | > 100 µM (inactive) | > 100 µM (inactive) | > 100 µM (inactive) | > 100 µM (inactive) | > 100 µM (inactive) | > 100 µM (inactive) | – | –
2 | c1ccc(C2=C(c3ccccc3)Sc3nnc(CCCCCCCCc4nnc5n4NC(c4ccccc4)=C(c4ccccc4)S5)n3N2)cc1 | 25 µM (inactive) | 46.6 µM (inactive) | > 100 µM (inactive) | 39.2 µM (inactive) | 44.1 µM (inactive) | 63 µM (inactive) | 46.7 µM (inactive) | – | 95.9 µM (inactive) | 29.8 µM (inactive) | 33.6 µM (inactive) | 27.4 µM (inactive) | 20.9 µM (inactive) | 49 µM (inactive) | – | 45.3 µM (inactive) | 85.5 µM (inactive) | 24.7 µM (inactive)
3 | S=C1C=C(c2ccccc2)Sc2ccccc2N1 | > 100 µM (inactive) | > 100 µM (inactive) | 41.4 µM (inactive) | > 100 µM (inactive) | > 100 µM (inactive) | – | > 100 µM (inactive) | > 100 µM (inactive) | > 100 µM (inactive) | 57.9 µM (inactive) | 74.6 µM (inactive) | > 100 µM (inactive) | 67.5 µM (inactive) | > 100 µM (inactive) | > 100 µM (inactive) | > 100 µM (inactive) | – | > 100 µM (inactive)
4 | C=C1C[C@@H]2CC[C@@]34CC5O[C@H]6C(O[C@H]7CC[C@H](CC(=O)O[C@@H]8[C@@H](C)[C@@H]9O[C@@H]%10C[C@]%11(C[C@@H]%12O[C@]%13(C[C@H](C)[C@@H]%14O[C@@H]%15CC(C(COC(C)=O)OC(C)=O)O[C@@H]%15C[C@@H]%14O%13)C[C@H](C)[C@@H]%12O%11)O[C@@H]%10C[C@@H]9O[C@H]8CC8O[C@@H](CC[C@@H]1O2)C[C@@H](C)C8(O)CO)O[C@@H]7[C@@H]6O3)[C@H]5O4 (stereo not given in full) | 0.513 µM (active) | 0.0908 µM (active) | > 1 µM (active) | > 1 µM (active) | 0.327 µM (active) | 0.721 µM (active) | 0.297 µM (active) | 0.371 µM (active) | > 0.776 µM (active) | 0.587 µM (active) | 0.243 µM (active) | 0.413 µM (active) | 0.995 µM (active) | 0.264 µM (active) | – | 0.311 µM (active) | 0.00489 µM (active) | > 0.451 µM (active)
5 | CC[C@@H]1ON(C)[C@H]2CN(C)C(=O)[C@@H]12 | > 100 µM (inactive) | – | > 100 µM (inactive) | > 100 µM (inactive) | – | > 100 µM (inactive) | > 100 µM (inactive) | > 100 µM (inactive) | > 100 µM (inactive) | > 100 µM (inactive) | > 100 µM (inactive) | > 100 µM (inactive) | > 100 µM (inactive) | > 100 µM (inactive) | > 100 µM (inactive) | > 100 µM (inactive) | > 100 µM (inactive) | > 100 µM (inactive)
6 | Oc1cc(O)c2ccc(-c3ccc(O)c(O)c3)[o+]c2c1 | > 100 µM (inactive) | 39.9 µM (inactive) | > 100 µM (inactive) | > 100 µM (inactive) | > 100 µM (inactive) | > 100 µM (inactive) | > 10 µM (inactive) | > 100 µM (inactive) | – | > 100 µM (inactive) | – | 84.9 µM (inactive) | 67.9 µM (inactive) | > 100 µM (inactive) | > 100 µM (inactive) | – | > 100 µM (inactive) | –
7 | O=C(COc1ccc(OCC(=O)NNC2=NC(c3cc(F)c(Cl)cc3Cl)CS2)c(Cl)c1)NNC1=NC(c2cc(F)c(Cl)cc2Cl)CS1 (stereo not given) | 24 µM (inactive) | 24.1 µM (inactive) | > 100 µM (inactive) | 14.7 µM (inactive) | 44.4 µM (inactive) | 36.2 µM (inactive) | 19.8 µM (inactive) | 20.1 µM (inactive) | 20 µM (inactive) | 74 µM (inactive) | – | 20 µM (inactive) | 28.6 µM (inactive) | 20.2 µM (inactive) | 28.4 µM (inactive) | 34.2 µM (inactive) | – | –
8 | O=C1NC2NC3NC(=O)NC3NC2N1 (stereo not given) | > 100 µM (inactive) | > 100 µM (inactive) | > 100 µM (inactive) | – | > 100 µM (inactive) | > 100 µM (inactive) | > 100 µM (inactive) | > 100 µM (inactive) | > 100 µM (inactive) | > 100 µM (inactive) | > 100 µM (inactive) | > 100 µM (inactive) | > 100 µM (inactive) | > 100 µM (inactive) | > 100 µM (inactive) | > 100 µM (inactive) | – | –
